{"source": "patent US12539292B2", "about": "“BRM targeting compounds and associated methods of use” (Arvinas Operations, Inc., priority 2018, dated 2026)", "biological_target": "T1, BRM (Homo sapiens, UniProt P51531)", "T1 construct": "In-Cell Western Screen of BRM Degradation in SW1573 Cells; endogenous in cells; host or cells: SW1573", "T1 sequence (P51531 whole entry)": "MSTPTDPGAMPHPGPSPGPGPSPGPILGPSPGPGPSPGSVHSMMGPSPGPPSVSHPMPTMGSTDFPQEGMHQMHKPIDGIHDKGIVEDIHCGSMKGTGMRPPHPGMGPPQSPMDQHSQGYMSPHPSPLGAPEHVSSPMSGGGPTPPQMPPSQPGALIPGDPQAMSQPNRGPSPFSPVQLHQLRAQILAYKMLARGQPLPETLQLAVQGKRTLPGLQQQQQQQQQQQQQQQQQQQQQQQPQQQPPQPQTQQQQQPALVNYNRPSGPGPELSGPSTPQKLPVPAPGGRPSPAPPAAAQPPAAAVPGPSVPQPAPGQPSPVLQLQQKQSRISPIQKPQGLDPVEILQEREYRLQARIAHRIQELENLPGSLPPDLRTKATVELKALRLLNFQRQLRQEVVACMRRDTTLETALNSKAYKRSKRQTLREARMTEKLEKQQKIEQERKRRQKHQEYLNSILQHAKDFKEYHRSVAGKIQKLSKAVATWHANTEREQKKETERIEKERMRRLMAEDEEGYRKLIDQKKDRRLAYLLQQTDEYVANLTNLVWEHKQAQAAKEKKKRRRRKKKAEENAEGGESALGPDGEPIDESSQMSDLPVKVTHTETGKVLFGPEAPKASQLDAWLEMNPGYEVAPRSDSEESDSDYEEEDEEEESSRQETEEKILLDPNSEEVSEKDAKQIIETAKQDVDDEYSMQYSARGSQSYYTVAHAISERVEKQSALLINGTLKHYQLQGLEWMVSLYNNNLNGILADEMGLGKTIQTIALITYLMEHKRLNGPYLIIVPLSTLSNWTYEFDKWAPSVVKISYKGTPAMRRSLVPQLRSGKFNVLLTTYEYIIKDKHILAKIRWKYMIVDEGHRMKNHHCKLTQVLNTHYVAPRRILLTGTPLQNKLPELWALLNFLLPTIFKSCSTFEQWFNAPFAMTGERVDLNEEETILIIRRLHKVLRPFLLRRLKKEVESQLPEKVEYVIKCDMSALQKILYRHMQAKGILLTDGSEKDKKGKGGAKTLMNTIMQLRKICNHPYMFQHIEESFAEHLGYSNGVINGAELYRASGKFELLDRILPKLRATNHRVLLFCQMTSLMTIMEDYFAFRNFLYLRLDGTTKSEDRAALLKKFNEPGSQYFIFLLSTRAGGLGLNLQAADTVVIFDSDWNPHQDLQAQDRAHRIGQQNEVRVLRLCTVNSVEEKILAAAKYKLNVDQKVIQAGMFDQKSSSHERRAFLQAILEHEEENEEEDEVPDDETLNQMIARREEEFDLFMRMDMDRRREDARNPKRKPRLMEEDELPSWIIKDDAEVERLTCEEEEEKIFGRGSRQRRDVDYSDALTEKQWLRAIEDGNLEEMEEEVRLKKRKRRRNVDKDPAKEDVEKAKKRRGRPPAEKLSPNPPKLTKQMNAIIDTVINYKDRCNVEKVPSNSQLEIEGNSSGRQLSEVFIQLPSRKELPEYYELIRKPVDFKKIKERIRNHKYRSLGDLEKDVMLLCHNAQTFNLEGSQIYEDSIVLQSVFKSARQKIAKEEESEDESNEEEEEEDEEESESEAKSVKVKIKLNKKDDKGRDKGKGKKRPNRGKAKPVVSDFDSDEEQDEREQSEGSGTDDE", "test": "In-cell Western screen of BRM degradation in SW1573 cells (Dmax and DC50)", "assay_type": "cell-based", "how_it_was_run": "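Overnight compound treatment (18-20 h, final DMSO 0.1%) of SW1573 cells in DMEM with 10% FBS precedes fixation and in-cell Western staining with 800/680 nm dye-labelled secondaries. Plate images give DC50 and maximal degradation.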", "key": {"[1]": {"conditions": "SW1573, % degraded, when tested at the top concentration of between 0.3 and 10 μM, read-out: BRM Dmax (%)"}, "[2]": {"conditions": "degradation of BRM, read-out: BRM DC50"}, "[3]": {"conditions": "BRM degradation, SW1573 cells, read-out: DC50"}, "[4]": {"conditions": "BRM degradation, read-out: BRM DC50"}}, "note": "Read-outs that look alike come from different tables or passages of the source."}
{"smiles": "Cc1ncsc1-c1ccc([C@H](C)NC(=O)[C@@H]2C[C@@H](O)CN2C(=O)[C@@H](c2cc(OCCN3CCC(O[C@H]4C[C@H](C#C[C@@H](C)n5cc(-c6cc(-c7ccccc7O)nnc6N)cn5)C4)CC3)no2)C(C)C)cc1", "note": "[compound 414, (2S,4R)-1-((R)-2-(3-(2-(4-((1R,3R)-3-((R)-3-(4-(3-amino-6-(2-hydroxyphenyl)pyridazin-4-yl)-1 H-pyrazol-1-yl)but-1-yn-1-yl)cyclobutoxy)piperidin-1-yl)ethoxy)isoxazol-5-yl)-3-methylbutanoyl)-4-hydroxy-N-((S)-1-(4-(4-methylthiazol-5-yl)phenyl)ethyl)pyrrolidine-2-carboxamide]", "values": [{"measurement": "Dmax", "setting": "[1]", "result": "> 75", "unit": "%"}, {"measurement": "DC50", "setting": "[2]", "result": "< 2.5", "unit": "nM"}]}
{"smiles": "Cc1ncsc1-c1ccc([C@H](C)NC(=O)[C@@H]2C[C@@H](O)CN2C(=O)[C@H](c2cc(OCC[C@@H]3CCN(C[C@H]4C[C@H](Oc5cc(N6C7CCC6CN(c6cc(-c8ccccc8O)nnc6N)C7)ccn5)C4)C[C@H]3C)no2)C(C)C)cc1", "note": "(racemic) [compound 545, (2S,4R)-1-((2S)-2-(3-(2-((3S,4S)-1-(((1r,3S)-3-((4-(3-(3-amino-6-(2-hydroxyphenyl)pyridazin-4-yl)-3,8-diazabicyclo[3.2.1]octan-8-yl)pyridin-2-yl)oxy)cyclobutyl)methyl)-3-methylpiperidin-4-yl)ethoxy)isoxazol-5-yl)-3-methylbutanoyl)-4-hydroxy-N-((S)-1-(4-(4-methylthiazol-5-yl)phenyl)ethyl)pyrrolidine-2-carboxamide]", "values": [{"measurement": "Dmax", "setting": "BRM degradation, SW1573 cells, Table 2D, read-out: **Dmax (%) (% degraded)", "result": "> 75", "unit": "%"}, {"measurement": "DC50", "setting": "BRM degradation, SW1573 cells, Table 2D, read-out: *DC50", "result": "2.5 to 10", "unit": "nM"}]}
{"smiles": "Cc1ncsc1-c1ccc([C@H](C)NC(=O)[C@@H]2C[C@@H](O)CN2C(=O)C(C(C)C)n2cc(OCCN3CCN(CCOc4cc(N5C6CCC5CN(c5cc(-c7ccccc7O)nnc5N)C6)ccn4)CC3)cn2)cc1", "note": "(stereo in doubt) [compound 39, (2S,4R)-1-[(2S)-2-[4-[2-(4-[2-[(4-[3-[3-amino-6-(2-hydroxyphenyl)pyridazin-4-yl]-3,8-diazabicyclo[3.2.1]octan-8-yl]pyridin-2-yl)oxy]ethyl]piperazin-1-yl)ethoxy]-1H-pyrazol-1-yl]-3-methylbutanoyl]-4-hydroxy-N-[(1S)-1-[4-(4-methyl-1,3-thiazol-5-yl)phenyl]ethyl]pyrrolidine-2-carboxamide]", "values": [{"measurement": "DC50", "setting": "[3]", "result": "> 30", "unit": "nM"}, {"measurement": "Dmax", "setting": "BRM degradation, SW1573 cells, when tested at the top concentration of between 0.3 and 10 μM, read-out: Dmax (%) (% degraded)", "result": "> 75", "unit": "%"}]}
{"smiles": "CC(C)[C@@H](C(=O)N1C[C@H](O)C[C@H]1C(=O)N[C@@H](C)c1ccc(-c2c(Cl)cnn2C)cc1)c1cc(OCCN2CCN(CCOc3cc(N4C5CCC4CN(c4cc(-c6ccccc6O)nnc4N)C5)ccn3)CC2)no1", "note": "[compound 283, (2S,4R)-1-((2R)-2-(3-(2-(4-(2-((4-(3-(3-amino-6-(2-hydroxyphenyl)pyridazin-4-yl)-3,8-diazabicyclo[3.2.1]octan-8-yl)pyridin-2-yl)oxy)ethyl)piperazin-1-yl)ethoxy)isoxazol-5-yl)-3-methylbutanoyl)-N-((S)-1-(4-(4-chloro-1-methyl-1H-pyrazol-5-yl)phenyl)ethyl)-4-hydroxypyrrolidine-2-carboxamide]", "values": [{"measurement": "DC50", "setting": "[3]", "result": "< 2.5", "unit": "nM"}, {"measurement": "Dmax", "setting": "BRM degradation, SW1573 cells, tested at the top concentration of between 0.3 and 10 μM, read-out: Dmax (%) (% degraded)", "result": "> 75", "unit": "%"}]}
{"smiles": "Cc1ncsc1-c1ccc([C@H](C)NC(=O)[C@@H]2C[C@@H](O)CN2C(=O)[C@H](c2cc(OCCC3(O)CCN(C[C@H]4C[C@H](Oc5cc(N6C7CC[C@@H]6CN(c6cc(-c8ccccc8O)nnc6N)C7)ccn5)C4)CC3)no2)C(C)C)cc1", "note": "[compound 435, (2S,4R)-1-((2S)-2-(3-(2-(1-(((1r,3S)-3-((4-(3-(3-amino-6-(2-hydroxyphenyl)pyridazin-4-yl)-3,8-diazabicyclo[3.2.1]octan-8-yl)pyridin-2-yl)oxy)cyclobutyl)methyl)-4-hydroxypiperidin-4-yl)ethoxy)isoxazol-5-yl)-3-methylbutanoyl)-4-hydroxy-N-((S)-1-(4-(4-methylthiazol-5-yl)phenyl)ethyl)pyrrolidine-2-carboxamide]", "values": [{"measurement": "BRM Dmax (%)", "setting": "% degraded, when tested at the top concentration of between 0.3 and 10 μM", "result": "A (A > 75)"}, {"measurement": "DC50", "setting": "[2]", "result": "< 2.5", "unit": "nM"}]}
{"smiles": "Cc1ncsc1-c1ccc([C@H](C)NC(=O)[C@@H]2C[C@@H](O)CN2C(=O)[C@@H](c2cc(N3CCN(C[C@H]4C[C@H](Oc5cc(N6C7CCC6CN(c6cc(-c8ccccc8O)nnc6N)C7)ccn5)C4)CC3)no2)C(C)C)cc1", "note": "[compound 499, (2S,4R)-1-((2R)-2-(3-(4-(((1r,3R)-3-((4-(3-(3-amino-6-(2-hydroxyphenyl)pyridazin-4-yl)-3,8-diazabicyclo[3.2.1]octan-8-yl)pyridin-2-yl)oxy)cyclobutyl)methyl)piperazin-1-yl)isoxazol-5-yl)-3-methylbutanoyl)-4-hydroxy-N-((S)-1-(4-(4-methylthiazol-5-yl)phenyl)ethyl)pyrrolidine-2-carboxamide]", "values": [{"measurement": "DC50", "setting": "[4]", "result": "< 2.5", "unit": "nM"}, {"measurement": "Dmax", "setting": "[1]", "result": "> 75", "unit": "%"}]}
{"smiles": "Cc1ncsc1-c1ccc([C@H](C)NC(=O)[C@@H]2C[C@@H](O)CN2C(=O)[C@H](c2cc(OCCC3CCN(CCOc4cc(N5C6CCC5CN(c5cc(-c7ccccc7O)nnc5N)C6)ccn4)CC3)no2)C(C)C)cc1", "note": "[compound 510, (2S,4R)-1-((2S)-2-(3-(2-(1-(2-((4-(3-(3-amino-6-(2-hydroxyphenyl)pyridazin-4-yl)-3,8-diazabicyclo[3.2.1]octan-8-yl)pyridin-2-yl)oxy)ethyl)piperidin-4-yl)ethoxy)isoxazol-5-yl)-3-methylbutanoyl)-4-hydroxy-N-((S)-1-(4-(4-methylthiazol-5-yl)phenyl)ethyl)pyrrolidine-2-carboxamide]", "values": [{"measurement": "DC50", "setting": "[4]", "result": "< 2.5", "unit": "nM"}, {"measurement": "Dmax", "setting": "[1]", "result": "> 75", "unit": "%"}]}
{"smiles": "Cc1ncsc1-c1ccc([C@H](C)NC(=O)[C@@H]2C[C@@H](O)CN2C(=O)[C@@H](c2cc(N3CCC(CC4CCN(C[C@H]5C[C@H](Oc6cc(N7C8CCC7CN(c7cc(-c9ccccc9O)nnc7N)C8)ccn6)C5)CC4)CC3)no2)C(C)C)cc1", "note": "[compound 473, (2S,4R)-1-((2R)-2-(3-(4-((1-(((1r,3r)-3-((4-(3-(3-amino-6-(2-hydroxyphenyl)pyridazin-4-yl)-3,8-diazabicyclo[3.2.1]octan-8-yl)pyridin-2-yl)oxy)cyclobutyl)methyl)piperidin-4-yl)methyl)piperidin-1-yl)isoxazol-5-yl)-3-methylbutanoyl)-4-hydroxy-N-((S)-1-(4-(4-methylthiazol-5-yl)phenyl)ethyl)pyrrolidine-2-carboxamide]", "values": [{"measurement": "Dmax", "setting": "[1]", "result": "> 75", "unit": "%"}, {"measurement": "DC50", "setting": "target protein degradation, read-out: BRM DC50", "result": "< 2.5", "unit": "nM"}]}
{"smiles": "Cc1ncsc1-c1ncc([C@H](C)NC(=O)[C@@H]2C[C@@H](O)CN2C(=O)[C@H](c2cc(OCCN3CCC(O[C@H]4C[C@H](Oc5cc(N6C7CCC6CN(c6cc(-c8ccccc8O)nnc6N)C7)ccn5)C4)CC3)no2)C(C)C)cn1", "note": "[compound 429, (2S,4R)-1-((2S)-2-(3-(2-(4-((1r,3S)-3-((4-(3-(3-amino-6-(2-hydroxyphenyl)pyridazin-4-yl)-3,8-diazabicyclo[3.2.1]octan-8-yl)pyridin-2-yl)oxy)cyclobutoxy)piperidin-1-yl)ethoxy)isoxazol-5-yl)-3-methylbutanoyl)-4-hydroxy-N-((S)-1-(2-(4-methylthiazol-5-yl)pyrimidin-5-yl)ethyl)pyrrolidine-2-carboxamide]", "values": [{"measurement": "DC50", "setting": "[2]", "result": "> 30", "unit": "nM"}]}
{"smiles": "Cc1cc([C@@H](C(=O)N2C[C@H](O)C[C@H]2C(=O)N[C@@H](C)c2ccc(-c3scnc3C)cc2)[C@H](C)COCCn2cc(-c3cc(-c4ccccc4O)nnc3N)cn2)on1", "note": "[compound 534, (2S,4R)-1-((2S,3S)-4-(2-(4-(3-amino-6-(2-hydroxyphenyl)pyridazin-4-yl)-1 H-pyrazol-1-yl)ethoxy)-3-methyl-2-(3-methylisoxazol-5-yl)butanoyl)-4-hydroxy-N-((S)-1-(4-(4-methylthiazol-5-yl)phenyl)ethyl)pyrrolidine-2-carboxamide]", "values": [{"measurement": "DC50", "setting": "[4]", "result": "> 30", "unit": "nM"}]}
{"smiles": "COc1nc(-c2scnc2C)ccc1[C@H](C)NC(=O)[C@@H]1C[C@@H](O)CN1C(=O)[C@H](c1cc(OCCN2CCC(O[C@H]3C[C@H](Oc4cc(N5C6CCC5CN(c5cc(-c7ccccc7O)nnc5N)C6)ccn4)C3)CC2)no1)C(C)C", "note": "[compound 278, (2S,4R)-1-((2S)-2-(3-(2-(4-((1r,3S)-3-((4-(3-(3-amino-6-(2-hydroxyphenyl)pyridazin-4-yl)-3,8-diazabicyclo[3.2.1]octan-8-yl)pyridin-2-yl)oxy)cyclobutoxy)piperidin-1-yl)ethoxy)isoxazol-5-yl)-3-methylbutanoyl)-4-hydroxy-N-((S)-1-(2-methoxy-6-(4-methylthiazol-5-yl)pyridin-3-yl)ethyl)pyrrolidine-2-carboxamide]", "values": [{"measurement": "DC50", "setting": "[3]", "result": "> 30", "unit": "nM"}]}
{"smiles": "Cc1ncsc1-c1ccc([C@H](C)NC(=O)[C@@H]2C[C@@H](O)CN2C(=O)[C@@H](c2cc(N3CC(CN4CC(COc5cc(N6C7CCC6CN(c6cc(-c8ccccc8O)nnc6N)C7)ccn5)C4)C3)no2)C(C)C)cc1", "note": "[compound 519, (2S,4R)-1-((2R)-2-(3-(3-((3-(((4-(3-(3-amino-6-(2-hydroxyphenyl)pyridazin-4-yl)-3,8-diazabicyclo[3.2.1]octan-8-yl)pyridin-2-yl)oxy)methyl)azetidin-1-yl)methyl)azetidin-1-yl)isoxazol-5-yl)-3-methylbutanoyl)-4-hydroxy-N-((S)-1-(4-(4-methylthiazol-5-yl)phenyl)ethyl)pyrrolidine-2-carboxamide]", "values": [{"measurement": "DC50", "setting": "[4]", "result": "> 30", "unit": "nM"}]}
